Measured values reported in patent publication US11802258B2, “Perfume precursor” (TAKASAGO INTERNATIONAL CORPORATION, priority 2017, dated 2023).

Tests used:
[1] = biological target: T1, lipase preparation Lipex 100 L (Thermomyces lanuginosus, UniProt O59952, N255R/T253R); experiment: Lipase-induced scent emission test, lipase preparation Lipex 100 L; format: biochemical; settings: for Scent Emission Amount: GC/MS head space peak area of scent-emitting compound minus water control, 10 mg fragrance precursor + 1 g aqueous 1% lipase preparation solution; for Scent-Emitting Compound: compound released, GC/MS of head space
T1 construct: purchased Novozymes Lipex 100 L
Procedure: (§1) 10 mg of a fragrance precursor and 1 g of an aqueous 1% lipase preparation solution were put in a vial bottle and mixed and after hermetically sealing the bottle, the mixture was subjected to GC/MS analysis of the head space component to obtain a peak area of the scent-emitting compound. As a control, water was used in place of the aqueous 1% lipase preparation solution, and a peak area of the control was obtained by the same method. The scent emission amount was determined from the difference between the obtained peak area of the scent-emitting compound and the peak area of the control.
(§2) (GC/MS Measurement Conditions)
(§3) Measurement instrument: 7890GC/5975M (manufactured by Agilent Technologies) • Column: BC-WAX50 m×0.25 mm I.D. • Temperature rise: 70° C. to 220° C., 4° C./min • Split ratio: 60:1

[2] = system: lipase preparation AY “Amano” 30SD; experiment: Lipase-induced scent emission test, lipase preparation AY “Amano” 30SD; format: biochemical; settings: GC/MS head space peak area of scent-emitting compound minus water control; 10 mg fragrance precursor + 1 g aqueous 1% lipase preparation solution
Procedure: as §1, §2, §3

[3] = system: Moraxella osloensis ATCC19976; experiment: Scent emission test by microorganism, Moraxella osloensis; format: cell-based; settings: GC/MS head space peak area minus control culture; 10 mg fragrance precursor in 3 mL culture solution, 30° C., 20 hours
Procedure: (§4) Culture of Staphylococcus aureus strain NBRC12732, Corynebacterium xerosis strain JCM1324, Pseudomonas aeruginosa strain NBRC13275, and Moraxella osloensis strain ATCC19976:
(§5) After inoculating each of bacteria in Muller-Hinton liquid medium, shaking culture was performed at 30° C. for 20 hours, and 3 mL of the resulting preculture solution was transferred to a vial bottle. 10 mg of each of the fragrance precursors was mixed therewith and after hermetical sealing, shaking culture was further performed at 30° C. for 20 hours.
(§6) A peak area of the scent-emitting compound was obtained by performing GC/MS analysis of the head space component included in the vial bottle containing 3 mL of a microorganism culture solution in which 10 mg of the fragrance precursor was mixed. A microorganism culture solution having not mixed therein the fragrance precursor was used as the control, and a peak area of the control was obtained by the same method. The scent emission amount was determined from the difference between the obtained peak area of the scent-emitting compound and the peak area of the control.
(§7) Measurement instrument: 7890GC/5975MSD (manufactured by Agilent Technologies) • Column: BC-WAX 50 m×0.25 mm I.D. • Temperature rise: 70° C. to 220° C., 4° C./min • Split ratio: splitless

[4] = system: Propionibacterium acnes JCM6473; experiment: Scent emission test by microorganism, Propionibacterium acnes; format: cell-based; settings: GC/MS head space peak area minus control culture; 10 mg fragrance precursor in 3 mL culture solution, static culture 28° C., 3 days
Procedure: Culture of Propionibacterium acnes Strain JCM6473:
(§8) After inoculating the bacterium in GAM bouillon liquid medium containing Hemin 0.5 ppm and Menadione 0.5 ppm, static culture was performed at 28° C. for 3 days under anaerobic conditions, and 3 mL of the resulting preculture solution was transferred to a vial bottle. 10 mg of each of the fragrance precursors was mixed therewith and after hermetical sealing, static culture was further performed at 28° C. for 3 days.
as §6, §7

[5] = system: Malassezia furfur NBRC0656; experiment: Scent emission test by microorganism, Malassezia furfur; format: cell-based; settings: GC/MS head space peak area minus control culture; 10 mg fragrance precursor in 3 mL culture solution, static culture 28° C., 3 days
Procedure: Culture of Malassezia furfur Strain NBRC0656:
as §8, with “Sabouraud” for “GAM bouillon”, “0.1% Tween 80,” for “Hemin 0.5 ppm and Menadione 0.5 ppm,”, “of” for “of each of”, “precursor” for “precursors”
as §6, §7

[6] = system: Staphylococcus aureus NBRC12732; experiment: Scent emission test by microorganism, Staphylococcus aureus; format: cell-based; settings: GC/MS head space peak area minus control culture; 10 mg fragrance precursor in 3 mL culture solution, 30° C., 20 hours
Procedure: as §4, §5, §6, §7

[7] = system: Pseudomonas aeruginosa NBRC13275; experiment: Scent emission test by microorganism, Pseudomonas aeruginosa; format: cell-based; settings: GC/MS head space peak area minus control culture; 10 mg fragrance precursor in 3 mL culture solution, 30° C., 20 hours
Procedure: as §4, §5, §6, §7

[8] = system: Corynebacterium xerosis JCM1324; experiment: Scent emission test by microorganism, Corynebacterium xerosis; format: cell-based; settings: GC/MS head space peak area minus control culture; 10 mg fragrance precursor in 3 mL culture solution, 30° C., 20 hours
Procedure: as §4, §5, §6, §7

T1 sequence (O59952 23-291 T253R/N255R): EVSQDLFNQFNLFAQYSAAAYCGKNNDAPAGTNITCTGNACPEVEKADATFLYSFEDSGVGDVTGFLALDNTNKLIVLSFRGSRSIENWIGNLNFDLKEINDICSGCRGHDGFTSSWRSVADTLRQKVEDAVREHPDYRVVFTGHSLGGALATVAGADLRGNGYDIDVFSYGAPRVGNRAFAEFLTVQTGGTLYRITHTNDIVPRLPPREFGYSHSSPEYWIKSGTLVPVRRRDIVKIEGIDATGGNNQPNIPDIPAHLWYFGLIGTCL

Compound: C=CCc1ccc(OC(=O)c2ccccc2)c(OC)c1 [Example 12, 4-allyl-2-methoxyphenyl benzoate]
- Scent Emission Amount [1]: 164,744,420
- Scent-Emitting Compound [1]: eugenol

Compound: CCCC(CC[C@@H]1[C@@H](C)CCCC1(C)C)OC(=O)c1ccc(OC)cc1 (stereo partly drawn) [Example 3, 1-((R,6S)-2,2,6-trimethylcyclohexyl)-3-hexanyl Anisate]
- Scent Emission Amount [2]: 40,373,157
- Scent Emission Amount [1]: 40,430,750

Compound: C=CCCCCCCCCOC(=O)c1ccccc1 [Example 14, 9-decenyl Benzoate]
- Scent Emission Amount [3]: 86,274,718
- Scent Emission Amount [4]: 133,440,692
- Scent Emission Amount [5]: 304,030,021

Compound: O=C(C=Cc1ccccc1)OCC=Cc1ccccc1 [cinnamyl cinnamate]
- Scent Emission Amount [2]: 24,711,289

Compound: CC/C=C\CCOC(=O)c1ccccc1O [(Z)-3-hexenyl salicylate]
- Scent Emission Amount [2]: 16,933,990
- Scent Emission Amount [6]: 14,126,965

Compound: O=C(OCCc1ccccc1)c1ccccc1 [phenylethyl benzoate]
- Scent Emission Amount [2]: 96,460,830

Compound: COc1ccc(C(=O)OCC[C@@H](C)CC/C=C(\C)CCC=C(C)C)cc1 [Example 8, (S,E)-3,7,11-trimethyl-6,10-dodecadienyl Anisate]
- Scent Emission Amount [2]: 23,338,647

Compound: O=C(C=Cc1ccccc1)OCCc1ccccc1 [phenylethyl cinnamate]
- Scent Emission Amount [2]: 22,892,002
- Scent Emission Amount [6]: 144,750,281
- Scent Emission Amount [7]: 247,508,719
- Scent Emission Amount [4]: 112,497,882
- Scent Emission Amount [5]: 351,450,490

Compound: COc1cc(C=O)ccc1OC(=O)c1ccccc1 [Example 13, 4-formyl-2-methoxyphenyl Benzoate]
- Scent Emission Amount [1]: 47,188,750
- Scent-Emitting Compound [1]: vanillin

Compound: CC(C)=CCC/C(C)=C/COC(=O)c1ccccc1 [geranyl benzoate]
- Scent Emission Amount [2]: 78,461,812
- Scent Emission Amount [6]: 839,961,157
- Scent Emission Amount [7]: 117,161,311
- Scent Emission Amount [4]: 105,061,217
- Scent Emission Amount [5]: 121,633,184

Compound: CC/C=C\CCOC(=O)c1ccccc1 [Example 11, (Z)-3-hexenyl Benzoate]
- Scent Emission Amount [2]: 49,663,459

Compound: O=C(Cc1ccccc1)OCCc1ccccc1 [phenylethyl phenylacetate]
- Scent Emission Amount [2]: 50,855,859

Compound: C=C(C)CCC[C@H](C)CCOC(=O)Cc1ccccc1 [rosinyl phenylacetate]
- Scent Emission Amount [2]: 56,492,946

Compound: CC(C)=CCC[C@H](C)CCOC(=O)c1ccccc1 [Example 1, 3,7-dimethyl-6-octenyl benzoate]
- Scent Emission Amount [1]: 28,098,876
- Scent-Emitting Compound [1]: citronellol

Compound: CC(C)[C@@H]1CC[C@@H](C)C[C@H]1OC(=O)c1ccccc1 [Example 6, (1R,2S,5R)-isopropyl-5-methylcyclohexyl benzoate]
- Scent Emission Amount [2]: 82,023,336

Compound: CC(C)=CCCC(C)CCOC(=O)Cc1ccccc1 (stereo not drawn) [citronellyl phenylacetate]
- Scent Emission Amount [7]: 150,385,642
- Scent Emission Amount [3]: 500,940,481
- Scent Emission Amount [4]: 292,401,763
- Scent Emission Amount [5]: 369,118,269

Compound: CC(C)=CCC/C(C)=C/COC(=O)Cc1ccccc1 [geranyl phenylacetate]
- Scent Emission Amount [2]: 54,842,763
- Scent Emission Amount [8]: 39,033,900

Compound: CC(C)=CCC/C(C)=C/CC[C@H](C)CCOC(=O)c1ccccc1 [Example 7, (S,E)-3,7,11-trimethyl-6,10-dodecadienyl Benzoate]
- Scent Emission Amount [2]: 88,986,381

Compound: CC(C)=CCC/C(C)=C/CC[C@H](C)CCOC(=O)/C=C/c1ccccc1 [Example 10, (S,E)-3,7,11-trimethyl-6,10-dodecadienyl Cinnamate]
- Scent Emission Amount [1]: 19,967,420
- Scent-Emitting Compound [1]: dihydrofarnesol
